Measurements taken from patent publication EP3070175A1, “TEST FOR DETERMINING SUSCEPTIBILITY OR RESISTANCE TO POLYMYXINS IN ENTEROBACTERIACEAE” (Université de Fribourg, priority 2015, dated 2016).

Legend:
P. mirabilis = test: MIC determination, broth microdilution in Cation-Adjusted Mueller-Hinton broth (CLSI); format: cell-based, Proteus mirabilis; details: strain Pmir
Method: (§1) Determination of MIC values were performed using the reference technique (broth microdilution in Cation-Adjusted Mueller-Hinton broth) according to the CLSI guidelines. Polymyxin B and colistin (Sigma-Aldrich, Saint-Louis) were tested over a range dilution from 0.12 to 128 µg/ml and 5.10^5 CFU/ml of bacteria in each well was used. Following the EUCAST breakpoints (http://www.eucast.org/), strains with a colistin MICs of ≤ 2 µg/ml were categorized as susceptible, although those with MICs of > 2 µg/ml were resistant.
(§2) All experiments were repeated in triplicate.

E. coli = test: as above; format: cell-based, Escherichia coli; details: for Colistin resistance: EUCAST breakpoints
Method: as §1, §2

S. marcescens = test: Polymyxin test: colorimetric detection of growth (glucose metabolization, phenol red) in presence of colistin sulphate; format: cell-based, Serratia marcescens; parameters: key: +, yellow; -, orange; details: strain Smar; colistin sulphate 3.75 mg/L final; visual colour change, up to 4 h at 37°C
Method: Each inoculum was prepared by mixing 1 öse (10 µl) of a fresh culture of the tested bacteria in 5 ml of sterile NaCl 0.85% (at a density of 3 Mac Farland, i.e. about 10^9 CFU/ml).
250 ml of reactive medium was prepared by mixing the compounds hereafter: • a broth powder of a non selective growth medium for bacteria, the Cation-Adjusted Mueller-Hinton broth (MHB-CA) : 6.25 g • a colour indicator, the phenol red : 0.0125 g • sterile distilled water 225 ml • sterile D (+)-glucose (10 %) anhydrous (sterilization by filtration) : 25 ml
The pH of the final reactive medium was adjusted to 6.6 and 6.7 with HCl 1M.
Colistin or polymyxin B was added or not at the concentration of 5 mg/L in the reactive medium. Standard colistin sulphate and polymyxin B were from Sigma Aldrich (Saint-Louis, France). Those antibiotic molecule powders were kept at 4°C before their use, whereas polymyxin dilutions were kept at -20°C.
For each strain, two wells of a plastic sterile plate with 96 shaped wells were inoculated in parallel with and without polymyxin (colistin sulphate or polymyxin B) in order to compare their colour change.
Plastic sterile plates were from Sarstedt (Nümbrecht, Germany). The tray may be prepared as follows : • 1. […]
The results of the tests were recorded at 10 min (checking for no spontaneous colour change in the well) and then every hour for a maximum of 4 hours by visual inspection. […]

K. pneumoniae = test: MIC determination, broth microdilution in Cation-Adjusted Mueller-Hinton broth (CLSI); format: cell-based, Klebsiella pneumoniae; details: for Colistin resistance: EUCAST breakpoints
Method: as §1, §2

H. alvei = test: as above; format: cell-based; details: strain ER
Method: as §1, §2

E. cloacae = test: as above; format: cell-based; details: for Colistin resistance: EUCAST breakpoints
Method: as §1, §2

M. morganii = test: as above; format: cell-based; details: strain Mmor
Method: as §1, §2

E. aerogenes = test: as above; format: cell-based; details: strain 6 FR
Method: as §1, §2

C. freundii = test: as above; format: cell-based; details: for Colistin resistance: EUCAST breakpoints
Method: as §1, §2

K. oxytoca = test: as above; format: cell-based; details: strain C24
Method: as §1, §2

P. stuartii = test: as above; format: cell-based; details: strain Pstu
Method: as §1, §2

colistin sulphate was tested, and the Colistin resistance (P. mirabilis; EUCAST breakpoints) was “+ (those with MICs of > 2 µg/ml were resistant)”, the “Colistin MIC” value (P. mirabilis; Natural resistance) was >128 µg/mL and the “Colistin MIC” value (E. coli; strain 3 FR) was 0.12 µg/mL. For the same substance, the Colistin resistance (E. coli; strain 3 FR) was “- (strains with a colistin MICs of ≤ 2 µg/ml were categorized as susceptible)”, the “Colistin MIC” value (E. coli; strain 5 FR) was 0.25 µg/mL and the Colistin resistance (E. coli; strain 5 FR) was “- (strains with a colistin MICs of ≤ 2 µg/ml were categorized as susceptible)”. For the same substance, the “Colistin MIC” value (E. coli; strain 10 FR) was 0.25 µg/mL, the Colistin resistance (E. coli; strain 10 FR) was “- (strains with a colistin MICs of ≤ 2 µg/ml were categorized as susceptible)” and the Colistin resistance (E. coli; strain 27563) was “+ (those with MICs of > 2 µg/ml were resistant)”. For the same substance, the “Colistin MIC” value (E. coli; strain 27563, resistance mechanism Unknown) was 16 µg/mL, the Colistin resistance (E. coli; strain 27837) was “+ (those with MICs of > 2 µg/ml were resistant)” and the “Colistin MIC” value (E. coli; strain 27837, resistance mechanism Unknown) was 16 µg/mL. For the same substance, the Colistin resistance (E. coli; strain 27850) was “+ (those with MICs of > 2 µg/ml were resistant)”, the “Colistin MIC” value (E. coli; strain 27850, resistance mechanism Unknown) was 16 µg/mL and the Colistin resistance (E. coli; strain 27852) was “+ (those with MICs of > 2 µg/ml were resistant)”. The “Colistin MIC” value (E. coli; strain 27852, resistance mechanism Unknown) was 8 µg/mL, the Colistin resistance (E. coli; strain 30742) was “+ (those with MICs of > 2 µg/ml were resistant)” and the “Colistin MIC” value (E. coli; strain 30742, resistance mechanism Unknown) was 8 µg/mL. For the same substance, the “Colistin MIC” value (E. coli; strain ATCC 25922) was 0.25 µg/mL, the Colistin resistance (E. coli; strain ATCC 25922) was “- (strains with a colistin MICs of ≤ 2 µg/ml were categorized as susceptible)” and the “Colistin MIC” value (E. coli; strain C140) was 0.12 µg/mL. The Colistin resistance (E. coli; strain C140) was “- (strains with a colistin MICs of ≤ 2 µg/ml were categorized as susceptible)”, the “Colistin MIC” value (E. coli; strain Top10) was 0.12 µg/mL and the Colistin resistance (E. coli; strain Top10) was “- (strains with a colistin MICs of ≤ 2 µg/ml were categorized as susceptible)”. The “Results of the method of the invention” value (S. marcescens) was “+”, the “Colistin MIC” value (K. pneumoniae; strain 1 FR) was 0.12 µg/mL and the Colistin resistance (K. pneumoniae; strain 1 FR) was “- (strains with a colistin MICs of ≤ 2 µg/ml were categorized as susceptible)”. The “Colistin MIC” value (K. pneumoniae; strain 2 FR) was 0.12 µg/mL, the Colistin resistance (K. pneumoniae; strain 2 FR) was “- (strains with a colistin MICs of ≤ 2 µg/ml were categorized as susceptible)” and the “Colistin MIC” value (K. pneumoniae; strain 4 FR) was 0.25 µg/mL. For the same substance, the Colistin resistance (K. pneumoniae; strain 4 FR) was “- (strains with a colistin MICs of ≤ 2 µg/ml were categorized as susceptible)”, the “Colistin MIC” value (K. pneumoniae; strain 9 FR) was 0.5 µg/mL and the Colistin resistance (K. pneumoniae; strain 9 FR) was “- (strains with a colistin MICs of ≤ 2 µg/ml were categorized as susceptible)”. For the same substance, the Colistin resistance (K. pneumoniae; strain 11 FR) was “+ (those with MICs of > 2 µg/ml were resistant)”, the “Colistin MIC” value (K. pneumoniae; strain 11 FR, resistance mechanism Unknown) was 32 µg/mL and the Colistin resistance (K. pneumoniae; strain 75b) was “+ (those with MICs of > 2 µg/ml were resistant)”. For the same substance, the “Colistin MIC” value (K. pneumoniae; strain 75b, PhoP D191Y) was 128 µg/mL, the Colistin resistance (K. pneumoniae; strain AF1b) was “+ (those with MICs of > 2 µg/ml were resistant)” and the “Colistin MIC” value (K. pneumoniae; strain AF1b, PmrB T157P) was 16 µg/mL. The Colistin resistance (K. pneumoniae; strain C23) was “+ (those with MICs of > 2 µg/ml were resistant)”, the “Colistin MIC” value (K. pneumoniae; strain C23, ΔmgrB) was 128 µg/mL and the Colistin resistance (K. pneumoniae; strain C25) was “+ (those with MICs of > 2 µg/ml were resistant)”. For the same substance, the “Colistin MIC” value (K. pneumoniae; strain C25, PmrA G53C) was 64 µg/mL, the Colistin resistance (K. pneumoniae; strain C26) was “+ (those with MICs of > 2 µg/ml were resistant)” and the “Colistin MIC” value (K. pneumoniae; strain C26, mgrB gene truncated with IS) was 128 µg/mL. For the same substance, the Colistin resistance (K. pneumoniae; strain C27) was “+ (those with MICs of > 2 µg/ml were resistant)”, the “Colistin MIC” value (K. pneumoniae; strain C27, mgrB Δnt23/33 (frameshift)) was >128 µg/mL and the “Colistin MIC” value (K. pneumoniae; strain C112) was 0.12 µg/mL. For the same substance, the Colistin resistance (K. pneumoniae; strain C112) was “- (strains with a colistin MICs of ≤ 2 µg/ml were categorized as susceptible)”, the “Colistin MIC” value (K. pneumoniae; strain C115) was 0.12 µg/mL and the Colistin resistance (K. pneumoniae; strain C115) was “- (strains with a colistin MICs of ≤ 2 µg/ml were categorized as susceptible)”. The “Colistin MIC” value (K. pneumoniae; strain C130) was 0.12 µg/mL, the Colistin resistance (K. pneumoniae; strain C130) was “- (strains with a colistin MICs of ≤ 2 µg/ml were categorized as susceptible)” and the “Colistin MIC” value (K. pneumoniae; strain C132) was 0.12 µg/mL. For the same substance, the Colistin resistance (K. pneumoniae; strain C132) was “- (strains with a colistin MICs of ≤ 2 µg/ml were categorized as susceptible)”, the Colistin resistance (K. pneumoniae; strain T1b) was “+ (those with MICs of > 2 µg/ml were resistant)” and the “Colistin MIC” value (K. pneumoniae; strain T1b, mgrB gene truncated with IS5-like) was 128 µg/mL. The Colistin resistance (H. alvei; EUCAST breakpoints) was “+ (those with MICs of > 2 µg/ml were resistant)”, the “Colistin MIC” value (H. alvei; resistance mechanism Unknown) was 16 µg/mL and the “Colistin MIC” value (E. cloacae; strain 7 FR) was 0.12 µg/mL. The Colistin resistance (E. cloacae; strain 7 FR) was “- (strains with a colistin MICs of ≤ 2 µg/ml were categorized as susceptible)”, the Colistin resistance (E. cloacae; strain C28) was “+ (those with MICs of > 2 µg/ml were resistant)” and the “Colistin MIC” value (E. cloacae; strain C28, resistance mechanism Unknown) was 32 µg/mL. The “Colistin MIC” value (E. cloacae; strain C129) was 0.25 µg/mL, the Colistin resistance (E. cloacae; strain C129) was “- (strains with a colistin MICs of ≤ 2 µg/ml were categorized as susceptible)” and the “Colistin MIC” value (E. cloacae; strain C144) was 0.25 µg/mL. The Colistin resistance (E. cloacae; strain C144) was “- (strains with a colistin MICs of ≤ 2 µg/ml were categorized as susceptible)”, the Colistin resistance (E. cloacae; strain HM) was “+ (those with MICs of > 2 µg/ml were resistant)” and the “Colistin MIC” value (E. cloacae; strain HM, resistance mechanism Unknown) was >128 µg/mL. The Colistin resistance (M. morganii; EUCAST breakpoints) was “+ (those with MICs of > 2 µg/ml were resistant)”, the “Colistin MIC” value (M. morganii; Natural resistance) was >128 µg/mL and the “Colistin MIC” value (E. aerogenes) was 0.12 µg/mL. The Colistin resistance (E. aerogenes; EUCAST breakpoints) was “- (strains with a colistin MICs of ≤ 2 µg/ml were categorized as susceptible)”, the “Colistin MIC” value (C. freundii; strain 8 FR) was 0.12 µg/mL and the Colistin resistance (C. freundii; strain 8 FR) was “- (strains with a colistin MICs of ≤ 2 µg/ml were categorized as susceptible)”. The “Colistin MIC” value (C. freundii; strain C136) was 0.12 µg/mL, the Colistin resistance (C. freundii; strain C136) was “- (strains with a colistin MICs of ≤ 2 µg/ml were categorized as susceptible)” and the Colistin resistance (K. oxytoca; EUCAST breakpoints) was “+ (those with MICs of > 2 µg/ml were resistant)”. The “Colistin MIC” value (K. oxytoca; mgrB promotor truncated with ISKpn26-like) was 64 µg/mL, the Colistin resistance (P. stuartii; EUCAST breakpoints) was “+ (those with MICs of > 2 µg/ml were resistant)” and the “Colistin MIC” value (P. stuartii; Natural resistance) was >128 µg/mL.
